What was measured:
Experiment in all cases: KINOMEscan competition binding
Conditions in all cases: compound 10.0 µM
MAPK1 (human) = MAPK1 (human) (UniProt P28482)
ULK2 (human) = ULK2 (human) (UniProt Q8IYT8)
PAK6 (human) = PAK6 (human) (UniProt Q9NQU5)
PIM2 (human) = PIM2 (human) (UniProt Q9P1W9)
MKNK2 (human) = MKNK2 (human) (UniProt Q9HBH9)
AURKB (human) = AURKB (human) (UniProt Q96GD4)
PRKD1 (human) = PRKD1 (human) (UniProt Q15139)
CDK19 (human) = CDK19 (human) (UniProt Q9BWU1)
TTK (human) = TTK (human) (UniProt P33981)
DCLK1 (human) = DCLK1 (human) (UniProt O15075)
MYLK2 (human) = MYLK2 (human) (UniProt Q9H1R3)
FRK (human) = FRK (human) (UniProt P42685)
CSK (human) = CSK (human) (UniProt P41240)
NEK2 (human) = NEK2 (human) (UniProt P51955)
ROS1 (human) = ROS1 (human) (UniProt P08922)
FLT3 (human) = FLT3 (human) (UniProt P36888)
KDR (human) = KDR (human) (UniProt P35968)
GSK3B (human) = GSK3B (human) (UniProt P49841)
IKBKB (human) = IKBKB (human) (UniProt O14920)
NTRK1 (human) = NTRK1 (human) (UniProt P04629)
CSNK2A2 (human) = CSNK2A2 (human) (UniProt P19784)
TAOK3 (human) = TAOK3 (human) (UniProt Q9H2K8)
PIK3CB (human) = PIK3CB (human) (UniProt P42338)
ROCK2 (human) = ROCK2 (human) (UniProt O75116)
MUSK (human) = MUSK (human) (UniProt O15146)
AKT2 (human) = AKT2 (human) (UniProt P31751)
MAPK4 (human) = MAPK4 (human) (UniProt P31152)
MAPKAPK2 (human) = MAPKAPK2 (human) (UniProt P49137)
SRPK2 (human) = SRPK2 (human) (UniProt P78362)
MARK3 (human) = MARK3 (human) (UniProt P27448)
MAPKAPK5 (human) = MAPKAPK5 (human) (UniProt Q8IW41)
PAK3 (human) = PAK3 (human) (UniProt O75914)
PRKCD (human) = PRKCD (human) (UniProt Q05655)
MAP2K3 (human) = MAP2K3 (human) (UniProt P46734)
RIPK2 (human) = RIPK2 (human) (UniProt O43353)
CAMK2G (human) = CAMK2G (human) (UniProt Q13555)
BMPR2 (human) = BMPR2 (human) (UniProt Q13873)
PIM1 (human) = PIM1 (human) (UniProt P11309)
LTK (human) = LTK (human) (UniProt P29376)
SIK1 (human) = SIK1 (human) (UniProt P57059)
INSRR (human) = INSRR (human) (UniProt P14616)

Chain of TAOK3 (human) (Q9H2K8 whole entry, looked up): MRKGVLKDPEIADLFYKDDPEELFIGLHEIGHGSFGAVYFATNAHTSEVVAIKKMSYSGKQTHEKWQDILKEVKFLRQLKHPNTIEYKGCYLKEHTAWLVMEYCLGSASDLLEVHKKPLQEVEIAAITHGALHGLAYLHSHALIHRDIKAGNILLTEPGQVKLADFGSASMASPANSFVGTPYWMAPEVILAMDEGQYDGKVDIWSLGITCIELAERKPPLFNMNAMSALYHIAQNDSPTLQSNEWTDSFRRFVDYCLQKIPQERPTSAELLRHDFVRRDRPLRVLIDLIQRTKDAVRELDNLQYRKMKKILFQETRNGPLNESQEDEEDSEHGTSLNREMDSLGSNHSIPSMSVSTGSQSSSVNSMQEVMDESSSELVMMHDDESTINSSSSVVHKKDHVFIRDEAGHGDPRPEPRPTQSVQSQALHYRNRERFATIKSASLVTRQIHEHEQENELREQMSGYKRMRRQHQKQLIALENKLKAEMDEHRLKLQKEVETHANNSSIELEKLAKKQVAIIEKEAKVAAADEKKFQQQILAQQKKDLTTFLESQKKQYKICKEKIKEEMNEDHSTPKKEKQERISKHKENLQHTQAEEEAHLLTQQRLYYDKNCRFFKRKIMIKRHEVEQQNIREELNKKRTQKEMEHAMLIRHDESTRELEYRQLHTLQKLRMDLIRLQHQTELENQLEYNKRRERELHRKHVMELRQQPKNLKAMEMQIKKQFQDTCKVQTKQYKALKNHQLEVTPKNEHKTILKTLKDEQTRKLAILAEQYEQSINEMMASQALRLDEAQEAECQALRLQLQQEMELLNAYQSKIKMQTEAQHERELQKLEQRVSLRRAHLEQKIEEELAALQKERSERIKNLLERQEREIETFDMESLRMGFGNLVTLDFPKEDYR
Chain of PIM2 (human) (Q9P1W9 whole entry, looked up): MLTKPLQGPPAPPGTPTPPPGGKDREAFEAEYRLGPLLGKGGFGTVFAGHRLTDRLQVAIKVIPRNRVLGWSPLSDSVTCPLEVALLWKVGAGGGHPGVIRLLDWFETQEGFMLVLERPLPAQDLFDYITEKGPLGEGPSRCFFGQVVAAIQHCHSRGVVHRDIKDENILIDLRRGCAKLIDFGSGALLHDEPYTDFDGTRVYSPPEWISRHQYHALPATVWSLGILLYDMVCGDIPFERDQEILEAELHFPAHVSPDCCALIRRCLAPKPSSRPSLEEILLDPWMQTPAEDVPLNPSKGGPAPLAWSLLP
Chain of ROS1 (human) (P08922 whole entry, looked up): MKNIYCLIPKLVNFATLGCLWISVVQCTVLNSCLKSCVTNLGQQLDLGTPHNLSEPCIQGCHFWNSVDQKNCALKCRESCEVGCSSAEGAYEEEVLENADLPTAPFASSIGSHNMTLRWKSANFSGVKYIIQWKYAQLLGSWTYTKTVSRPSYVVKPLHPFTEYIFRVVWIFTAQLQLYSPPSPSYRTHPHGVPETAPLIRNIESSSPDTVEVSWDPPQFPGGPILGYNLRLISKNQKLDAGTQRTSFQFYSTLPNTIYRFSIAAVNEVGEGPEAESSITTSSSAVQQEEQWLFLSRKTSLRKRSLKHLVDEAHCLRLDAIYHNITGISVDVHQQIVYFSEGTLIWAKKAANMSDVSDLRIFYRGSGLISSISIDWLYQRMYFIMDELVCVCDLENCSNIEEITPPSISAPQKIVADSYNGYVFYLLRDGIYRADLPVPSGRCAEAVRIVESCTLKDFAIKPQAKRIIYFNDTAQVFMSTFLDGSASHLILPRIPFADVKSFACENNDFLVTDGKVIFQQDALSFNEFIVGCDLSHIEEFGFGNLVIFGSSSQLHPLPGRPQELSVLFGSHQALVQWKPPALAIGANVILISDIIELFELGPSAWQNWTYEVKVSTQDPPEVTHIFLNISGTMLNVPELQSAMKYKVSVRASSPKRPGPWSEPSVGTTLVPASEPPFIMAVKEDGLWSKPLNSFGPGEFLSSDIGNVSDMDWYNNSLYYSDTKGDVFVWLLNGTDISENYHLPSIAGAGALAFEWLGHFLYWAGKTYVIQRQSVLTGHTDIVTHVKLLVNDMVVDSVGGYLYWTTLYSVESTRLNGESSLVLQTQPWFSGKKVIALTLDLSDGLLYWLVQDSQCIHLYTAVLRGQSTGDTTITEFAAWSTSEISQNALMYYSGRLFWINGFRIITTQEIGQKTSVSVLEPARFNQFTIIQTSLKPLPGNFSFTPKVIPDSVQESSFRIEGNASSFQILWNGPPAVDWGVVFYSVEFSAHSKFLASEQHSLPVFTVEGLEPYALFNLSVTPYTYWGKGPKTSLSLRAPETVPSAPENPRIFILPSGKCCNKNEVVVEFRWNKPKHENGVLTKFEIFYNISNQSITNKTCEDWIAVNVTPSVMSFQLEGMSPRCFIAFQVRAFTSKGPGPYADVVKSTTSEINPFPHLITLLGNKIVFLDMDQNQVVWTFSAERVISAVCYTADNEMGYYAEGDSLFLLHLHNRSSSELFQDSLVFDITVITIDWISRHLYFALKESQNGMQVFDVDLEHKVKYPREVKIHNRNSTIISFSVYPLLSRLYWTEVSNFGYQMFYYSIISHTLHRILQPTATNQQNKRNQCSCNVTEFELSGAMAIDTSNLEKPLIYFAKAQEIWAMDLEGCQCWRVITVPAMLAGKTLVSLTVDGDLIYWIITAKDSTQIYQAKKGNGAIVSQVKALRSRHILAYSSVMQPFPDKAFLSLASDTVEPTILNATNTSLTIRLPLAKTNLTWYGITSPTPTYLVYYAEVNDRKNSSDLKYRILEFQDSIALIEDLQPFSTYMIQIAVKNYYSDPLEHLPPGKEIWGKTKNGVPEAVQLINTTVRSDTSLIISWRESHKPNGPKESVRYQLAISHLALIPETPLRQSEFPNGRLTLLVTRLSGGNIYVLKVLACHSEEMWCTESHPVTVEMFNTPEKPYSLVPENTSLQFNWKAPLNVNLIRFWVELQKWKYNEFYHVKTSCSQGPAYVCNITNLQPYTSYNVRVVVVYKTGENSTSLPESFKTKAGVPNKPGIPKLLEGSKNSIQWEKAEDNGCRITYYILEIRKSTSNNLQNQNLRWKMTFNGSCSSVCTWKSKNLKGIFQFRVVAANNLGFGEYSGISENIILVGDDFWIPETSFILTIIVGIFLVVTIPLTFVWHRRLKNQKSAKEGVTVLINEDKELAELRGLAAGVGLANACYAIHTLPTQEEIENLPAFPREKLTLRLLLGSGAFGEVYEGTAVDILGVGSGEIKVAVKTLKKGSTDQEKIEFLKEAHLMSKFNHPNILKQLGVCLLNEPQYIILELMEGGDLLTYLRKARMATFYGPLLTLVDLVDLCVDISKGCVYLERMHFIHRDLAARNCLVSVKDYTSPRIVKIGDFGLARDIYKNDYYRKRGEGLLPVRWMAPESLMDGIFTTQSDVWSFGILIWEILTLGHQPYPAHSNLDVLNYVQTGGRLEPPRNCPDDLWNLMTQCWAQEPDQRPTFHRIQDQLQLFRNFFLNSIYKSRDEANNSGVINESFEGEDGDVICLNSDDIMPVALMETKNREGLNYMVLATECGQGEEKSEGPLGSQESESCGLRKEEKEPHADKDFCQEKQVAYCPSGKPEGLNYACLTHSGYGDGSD
Chain of CDK19 (human) (Q9BWU1 whole entry, looked up): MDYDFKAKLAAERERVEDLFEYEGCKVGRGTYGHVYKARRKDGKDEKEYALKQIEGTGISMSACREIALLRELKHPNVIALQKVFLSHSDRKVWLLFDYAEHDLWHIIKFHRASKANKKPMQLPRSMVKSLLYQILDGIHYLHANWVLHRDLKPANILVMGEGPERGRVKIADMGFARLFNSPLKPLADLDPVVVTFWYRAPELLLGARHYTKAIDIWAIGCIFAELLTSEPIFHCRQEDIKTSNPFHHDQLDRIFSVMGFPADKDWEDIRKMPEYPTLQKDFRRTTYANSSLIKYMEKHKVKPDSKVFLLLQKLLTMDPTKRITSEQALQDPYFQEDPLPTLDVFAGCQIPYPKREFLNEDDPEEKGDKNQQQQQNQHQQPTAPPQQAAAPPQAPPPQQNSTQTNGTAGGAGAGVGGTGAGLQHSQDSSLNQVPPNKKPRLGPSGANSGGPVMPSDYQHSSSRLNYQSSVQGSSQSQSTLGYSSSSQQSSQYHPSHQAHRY
Chain of PIK3CB (human) (P42338 whole entry, looked up): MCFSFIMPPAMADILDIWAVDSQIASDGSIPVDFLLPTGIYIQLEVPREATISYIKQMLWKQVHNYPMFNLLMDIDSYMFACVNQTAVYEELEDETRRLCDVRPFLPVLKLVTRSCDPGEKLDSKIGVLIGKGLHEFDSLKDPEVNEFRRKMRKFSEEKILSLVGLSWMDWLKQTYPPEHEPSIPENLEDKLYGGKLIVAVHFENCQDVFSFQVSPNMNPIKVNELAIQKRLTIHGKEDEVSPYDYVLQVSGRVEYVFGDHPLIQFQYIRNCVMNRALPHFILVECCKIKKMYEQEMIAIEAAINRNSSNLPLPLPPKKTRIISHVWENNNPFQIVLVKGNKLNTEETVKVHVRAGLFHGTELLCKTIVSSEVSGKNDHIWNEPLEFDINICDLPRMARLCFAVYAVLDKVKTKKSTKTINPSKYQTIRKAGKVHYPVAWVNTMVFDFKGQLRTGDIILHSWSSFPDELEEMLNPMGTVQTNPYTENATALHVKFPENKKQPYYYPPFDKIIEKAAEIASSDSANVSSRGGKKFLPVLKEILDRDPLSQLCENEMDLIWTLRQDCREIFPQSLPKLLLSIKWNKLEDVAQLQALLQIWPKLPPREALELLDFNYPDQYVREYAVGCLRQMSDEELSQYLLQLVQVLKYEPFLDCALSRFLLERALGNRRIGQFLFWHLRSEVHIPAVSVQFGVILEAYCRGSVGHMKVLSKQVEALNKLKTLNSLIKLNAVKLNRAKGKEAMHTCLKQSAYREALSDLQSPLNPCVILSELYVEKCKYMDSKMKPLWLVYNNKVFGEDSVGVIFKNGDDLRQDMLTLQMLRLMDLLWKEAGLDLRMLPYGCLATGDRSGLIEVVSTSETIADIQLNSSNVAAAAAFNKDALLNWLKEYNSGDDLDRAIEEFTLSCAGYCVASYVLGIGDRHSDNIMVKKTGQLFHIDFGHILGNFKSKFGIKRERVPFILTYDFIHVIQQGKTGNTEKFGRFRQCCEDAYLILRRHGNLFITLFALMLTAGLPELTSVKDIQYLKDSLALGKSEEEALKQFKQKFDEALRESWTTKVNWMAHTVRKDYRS

Q: For `Cc1ccc2nc(NCCN)c3ncc(C)n3c2c1`, which kinase still bound, per cent of control (MAPK1 (human)) is on record?
A: 97%

Q: What about the kinase still bound, per cent of control (ULK2 (human)) of the same compound?
A: 100%

Q: And the kinase still bound, per cent of control (PAK6 (human))?
A: 100%

Q: What about the kinase still bound, per cent of control (PIM2 (human)) of the same compound?
A: 100%

Q: What about the kinase still bound, per cent of control (MKNK2 (human)) of the same compound?
A: 90%

Q: What about the kinase still bound, per cent of control (AURKB (human)) of the same compound?
A: 67%

Q: What about the kinase still bound, per cent of control (PRKD1 (human)) of the same compound?
A: 47%

Q: And the kinase still bound, per cent of control (CDK19 (human))?
A: 100%

Q: And the kinase still bound, per cent of control (TTK (human))?
A: 100%

Q: And the kinase still bound, per cent of control (DCLK1 (human))?
A: 84%

Q: What about the kinase still bound, per cent of control (MYLK2 (human)) of the same compound?
A: 71%

Q: What about the kinase still bound, per cent of control (FRK (human)) of the same compound?
A: 100%

Q: What about the kinase still bound, per cent of control (CSK (human)) of the same compound?
A: 100%

Q: What about the kinase still bound, per cent of control (NEK2 (human)) of the same compound?
A: 100%

Q: What about the kinase still bound, per cent of control (ROS1 (human)) of the same compound?
A: 77%

Q: What about the kinase still bound, per cent of control (FLT3 (human)) of the same compound?
A: 100%

Q: What about the kinase still bound, per cent of control (KDR (human)) of the same compound?
A: 100%

Q: And the kinase still bound, per cent of control (GSK3B (human))?
A: 68%

Q: And the kinase still bound, per cent of control (IKBKB (human))?
A: 0.55%

Q: And the kinase still bound, per cent of control (NTRK1 (human))?
A: 100%

Q: And the kinase still bound, per cent of control (CSNK2A2 (human))?
A: 86%

Q: And the kinase still bound, per cent of control (TAOK3 (human))?
A: 59%

Q: And the kinase still bound, per cent of control (PIK3CB (human))?
A: 88%

Q: What about the kinase still bound, per cent of control (ROCK2 (human)) of the same compound?
A: 100%

Q: What about the kinase still bound, per cent of control (MUSK (human)) of the same compound?
A: 100%

Q: And the kinase still bound, per cent of control (AKT2 (human))?
A: 100%

Q: And the kinase still bound, per cent of control (MAPK4 (human))?
A: 89%

Q: What about the kinase still bound, per cent of control (MAPKAPK2 (human)) of the same compound?
A: 100%

Q: What about the kinase still bound, per cent of control (SRPK2 (human)) of the same compound?
A: 89%

Q: What about the kinase still bound, per cent of control (MARK3 (human)) of the same compound?
A: 100%

Q: And the kinase still bound, per cent of control (MAPKAPK5 (human))?
A: 100%

Q: And the kinase still bound, per cent of control (PAK3 (human))?
A: 62%

Q: And the kinase still bound, per cent of control (PRKCD (human))?
A: 100%

Q: And the kinase still bound, per cent of control (MAP2K3 (human))?
A: 95%

Q: What about the kinase still bound, per cent of control (RIPK2 (human)) of the same compound?
A: 100%

Q: What about the kinase still bound, per cent of control (CAMK2G (human)) of the same compound?
A: 100%

Q: And the kinase still bound, per cent of control (BMPR2 (human))?
A: 96%

Q: And the kinase still bound, per cent of control (PIM1 (human))?
A: 100%

Q: And the kinase still bound, per cent of control (LTK (human))?
A: 95%

Q: What about the kinase still bound, per cent of control (SIK1 (human)) of the same compound?
A: 100%

Q: And the kinase still bound, per cent of control (INSRR (human))?
A: 100%

Q: With `C=CC(=O)Nc1cc(NC(=O)c2ccc(C)c(NC(=O)c3ccno3)c2)cc(C(F)(F)F)c1` as the compound, how does the kinase still bound, per cent of control (MAPK1 (human)) read?
A: 100%

Q: What about the kinase still bound, per cent of control (ULK2 (human)) of the same compound?
A: 100%

Q: What about the kinase still bound, per cent of control (PAK6 (human)) of the same compound?
A: 100%

Q: And the kinase still bound, per cent of control (PIM2 (human))?
A: 96%

Q: What about the kinase still bound, per cent of control (MKNK2 (human)) of the same compound?
A: 100%

Q: And the kinase still bound, per cent of control (AURKB (human))?
A: 100%

Q: And the kinase still bound, per cent of control (PRKD1 (human))?
A: 100%

Q: What about the kinase still bound, per cent of control (CDK19 (human)) of the same compound?
A: 96%

Q: What about the kinase still bound, per cent of control (TTK (human)) of the same compound?
A: 77%

Q: What about the kinase still bound, per cent of control (DCLK1 (human)) of the same compound?
A: 100%

Q: What about the kinase still bound, per cent of control (MYLK2 (human)) of the same compound?
A: 100%

Q: What about the kinase still bound, per cent of control (FRK (human)) of the same compound?
A: 12%

Q: And the kinase still bound, per cent of control (CSK (human))?
A: 71%

Q: And the kinase still bound, per cent of control (NEK2 (human))?
A: 100%

Q: And the kinase still bound, per cent of control (ROS1 (human))?
A: 100%

Q: And the kinase still bound, per cent of control (FLT3 (human))?
A: 100%

Q: And the kinase still bound, per cent of control (KDR (human))?
A: 87%

Q: What about the kinase still bound, per cent of control (GSK3B (human)) of the same compound?
A: 100%

Q: What about the kinase still bound, per cent of control (IKBKB (human)) of the same compound?
A: 90%

Q: And the kinase still bound, per cent of control (NTRK1 (human))?
A: 87%

Q: What about the kinase still bound, per cent of control (CSNK2A2 (human)) of the same compound?
A: 81%

Q: What about the kinase still bound, per cent of control (TAOK3 (human)) of the same compound?
A: 77%

Q: What about the kinase still bound, per cent of control (PIK3CB (human)) of the same compound?
A: 100%

Q: And the kinase still bound, per cent of control (ROCK2 (human))?
A: 85%

Q: And the kinase still bound, per cent of control (MUSK (human))?
A: 100%

Q: And the kinase still bound, per cent of control (AKT2 (human))?
A: 100%

Q: And the kinase still bound, per cent of control (MAPK4 (human))?
A: 100%

Q: And the kinase still bound, per cent of control (MAPKAPK2 (human))?
A: 100%

Q: And the kinase still bound, per cent of control (SRPK2 (human))?
A: 89%

Q: What about the kinase still bound, per cent of control (MARK3 (human)) of the same compound?
A: 67%

Q: And the kinase still bound, per cent of control (MAPKAPK5 (human))?
A: 83%

Q: And the kinase still bound, per cent of control (PAK3 (human))?
A: 100%

Q: What about the kinase still bound, per cent of control (PRKCD (human)) of the same compound?
A: 91%

Q: And the kinase still bound, per cent of control (MAP2K3 (human))?
A: 100%

Q: What about the kinase still bound, per cent of control (RIPK2 (human)) of the same compound?
A: 100%

Q: What about the kinase still bound, per cent of control (CAMK2G (human)) of the same compound?
A: 89%

Q: And the kinase still bound, per cent of control (BMPR2 (human))?
A: 100%

Q: What about the kinase still bound, per cent of control (PIM1 (human)) of the same compound?
A: 100%

Q: What about the kinase still bound, per cent of control (LTK (human)) of the same compound?
A: 89%

Q: What about the kinase still bound, per cent of control (SIK1 (human)) of the same compound?
A: 97%

Q: And the kinase still bound, per cent of control (INSRR (human))?
A: 100%

Q: For `C=CC(=O)Nc1cccc(Nc2nc(N[C@H]3CC[C@H](N(C)C)CC3)nc3c2ncn3C(C)C)c1`, which kinase still bound, per cent of control (MAPK1 (human)) is on record?
A: 93%

Q: And the kinase still bound, per cent of control (ULK2 (human))?
A: 2%

Q: And the kinase still bound, per cent of control (PAK6 (human))?
A: 47%

Q: What about the kinase still bound, per cent of control (PIM2 (human)) of the same compound?
A: 100%

Q: And the kinase still bound, per cent of control (MKNK2 (human))?
A: 39%

Q: And the kinase still bound, per cent of control (AURKB (human))?
A: 73%

Q: And the kinase still bound, per cent of control (PRKD1 (human))?
A: 100%

Q: And the kinase still bound, per cent of control (CDK19 (human))?
A: 100%

Q: And the kinase still bound, per cent of control (TTK (human))?
A: 51%

Q: What about the kinase still bound, per cent of control (DCLK1 (human)) of the same compound?
A: 30%

Q: And the kinase still bound, per cent of control (MYLK2 (human))?
A: 90%

Q: What about the kinase still bound, per cent of control (FRK (human)) of the same compound?
A: 53%

Q: What about the kinase still bound, per cent of control (CSK (human)) of the same compound?
A: 90%

Q: And the kinase still bound, per cent of control (NEK2 (human))?
A: 94%

Q: And the kinase still bound, per cent of control (ROS1 (human))?
A: 99%

Q: What about the kinase still bound, per cent of control (FLT3 (human)) of the same compound?
A: 2.6%

Q: What about the kinase still bound, per cent of control (KDR (human)) of the same compound?
A: 96%

Q: What about the kinase still bound, per cent of control (GSK3B (human)) of the same compound?
A: 94%

Q: What about the kinase still bound, per cent of control (IKBKB (human)) of the same compound?
A: 76%

Q: What about the kinase still bound, per cent of control (NTRK1 (human)) of the same compound?
A: 15%

Q: And the kinase still bound, per cent of control (CSNK2A2 (human))?
A: 48%

Q: And the kinase still bound, per cent of control (TAOK3 (human))?
A: 28%

Q: What about the kinase still bound, per cent of control (PIK3CB (human)) of the same compound?
A: 100%

Q: And the kinase still bound, per cent of control (ROCK2 (human))?
A: 10%

Q: And the kinase still bound, per cent of control (MUSK (human))?
A: 84%

Q: And the kinase still bound, per cent of control (AKT2 (human))?
A: 84%

Q: And the kinase still bound, per cent of control (MAPK4 (human))?
A: 100%

Q: And the kinase still bound, per cent of control (MAPKAPK2 (human))?
A: 100%

Q: What about the kinase still bound, per cent of control (SRPK2 (human)) of the same compound?
A: 92%

Q: What about the kinase still bound, per cent of control (MARK3 (human)) of the same compound?
A: 81%

Q: What about the kinase still bound, per cent of control (MAPKAPK5 (human)) of the same compound?
A: 87%

Q: What about the kinase still bound, per cent of control (PAK3 (human)) of the same compound?
A: 100%

Q: And the kinase still bound, per cent of control (PRKCD (human))?
A: 83%

Q: And the kinase still bound, per cent of control (MAP2K3 (human))?
A: 77%

Q: And the kinase still bound, per cent of control (RIPK2 (human))?
A: 100%

Q: And the kinase still bound, per cent of control (CAMK2G (human))?
A: 76%

Q: What about the kinase still bound, per cent of control (BMPR2 (human)) of the same compound?
A: 79%

Q: What about the kinase still bound, per cent of control (PIM1 (human)) of the same compound?
A: 92%

Q: And the kinase still bound, per cent of control (LTK (human))?
A: 88%

Q: And the kinase still bound, per cent of control (SIK1 (human))?
A: 85%

Q: What about the kinase still bound, per cent of control (INSRR (human)) of the same compound?
A: 64%
